Source: patent publication US6759399B1, “Use of antimineralocorticoid compounds against narcotic withdrawal syndrome” (Aventis Pharma S.A., priority 1995, dated 2004)
Several values for one entry are separate records, joined by “and”; a condition that tells them apart may be missing. Equal entries are not always repeated.

Key:
[1] = tested on: morphinic withdrawal syndrome induced by naloxone in mice; assay: Withdrawal syndrome induced by naloxone in mice treated with morphine (jumping test); conditions: for % protection: relative to the morphine group
[2] = tested on: self-administration of cocaine in rats; assay: Dependence induced by cocaine: self-administration of cocaine in trained rats; assay type: in vivo; conditions: 1 hour before session
Method: The anti-mineralocorticoid product AM2 was tested on 5 rats which were trained in the self-administration of cocaine during daily periods of one hour.
These rats were pre-treated 1 hour before the start of the self-administration sessions.
The product AM2 dissolved in a saline solution was administered by intra-peritoneal route. The doses range from 10 to 100 mg/kg.

[3] = antimineralocorticoid alone 4 × 10 mg/kg p.o., no morphine, naloxone 100 mg/kg i.p.
[4] = antimineralocorticoid alone 4 × 20 mg/kg p.o., no morphine, naloxone 100 mg/kg i.p.
[5] = morphine 799 mg/kg s.c. + antimineralocorticoid 4 × 10 mg/kg p.o., naloxone 100 mg/kg i.p.
[6] = morphine 799 mg/kg s.c. + antimineralocorticoid 4 × 10 mg/kg p.o.
[7] = morphine 799 mg/kg s.c. + antimineralocorticoid 4 × 20 mg/kg p.o., naloxone 100 mg/kg i.p.
[8] = morphine 799 mg/kg s.c. + antimineralocorticoid 4 × 20 mg/kg p.o.

Structure (SMILES) | Number of jumps/10 minutes (m ± sem) [1, 3] [jumps/10 minutes] | Number of jumps/10 minutes (m ± sem) [1, 4] [jumps/10 minutes] | Number of jumps/10 minutes (m ± sem) [1, 5] [jumps/10 minutes] | % protection [1, 6] [%] | Number of jumps/10 minutes (m ± sem) [1, 7] [jumps/10 minutes] | % protection [1, 8] [%] | Number of jumps/10 minutes (m ± sem) ([1]; antimineralocorticoid alone 4 × 50 mg/kg p.o., no morphine, naloxone 100 mg/kg i.p.) [jumps/10 minutes] | Number of jumps/10 minutes (m ± sem) ([1]; morphine 799 mg/kg s.c. + antimineralocorticoid 4 × 50 mg/kg p.o., naloxone 100 mg/kg i.p.) [jumps/10 minutes] | % protection ([1]; morphine 799 mg/kg s.c. + antimineralocorticoid 4 × 50 mg/kg p.o.) [%] | effect on the self-administration of cocaine ([2]; pre-treatment with 10 or 20 mg/kg intra-peritoneal) | effect on the self-administration of cocaine ([2]; pre-treatment with 50 or 75 mg/kg intra-peritoneal) | Number of jumps/10 minutes (m ± sem) ([1]; morphine alone 799 mg/kg s.c. (cumulative over 4 days), naloxone 100 mg/kg i.p. on day 4)
CC(=O)S[C@@H]1CC2=CC(=O)CC[C@]2(C)[C@H]2CC[C@@]3(C)[C@@H](CC[C@@]34CCC(=O)O4)[C@H]12 [AM1, γ-lactone of 7α-acetylthio-17β-hydroxy-3-oxo-17α-pregn-4-ene-21-carboxylic acid] | 3 ± 2 | 11 ± 4 | 51 ± 7 | −33 | 77 ± 8 | −32 | – | – | – | – | – | –
CCC[C@@H]1CC2=CC(=O)CC[C@]2(C)[C@H]2CC[C@@]3(C)[C@@H](CC[C@@]3(O)CCC(=O)[O-])[C@H]12.[K+] [AM2, potassium 17β-hydroxy 3-oxo 7α-propyl-(17α)-pregn-4-ene-21-carboxylate] | 2 ± 2 | 4 ± 4 | 76 ± 16 | −25 | 51 ± 8 | −48 | 3 ± 2 | 61 ± 8 | −40 | little or no effect | significant reduction | –
CN1CC[C@]23c4c5ccc(O)c4O[C@H]2[C@@H](O)C=C[C@H]3[C@H]1C5 [Morphine, morphine] | – | – | – | – | – | – | – | – | – | – | – | 114 ± 8 jumps/10 minutes and 76 ± 15 jumps/10 minutes and 102 ± 10 jumps/10 minutes and 99 ± 13 jumps/10 minutes
